Measurements published in PubChem BioAssay AID2060896 (Molecular Pharmacology Branch, DTP, NCI, 2025).

Test system: 941728-121-R-J1-PDC complex spheroid viability
Experiment: Anticancer human tumor 941728-121-R-J1-PDC patient-derived lung adenocarcinoma cell line growth inhibition [RAS]
Conditions: for IC50: curve of first compound; for viability, T/C: stronger effect = lower value
Procedure, shortened: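 Tumour cells grown as complex spheroids with HUVEC endothelial cells and mesenchymal stem cells, treated with RAS pathway inhibitor combinations. Each agent spans half-log steps from near clinical Cmax, or 10 microM where Cmax is unknown.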

[1] = second compound 0.000949 µM, first compound 0.000949 µM
[2] = second compound 0.000949 µM, first compound 0.003 µM
[3] = second compound 0.000949 µM, first compound 0.00949 µM
[4] = second compound 0.000949 µM, first compound 0.03 µM
[5] = second compound 0.000949 µM, first compound 0.0949 µM
[6] = second compound 0.000949 µM, first compound 0.3 µM
[7] = second compound 0.003 µM, first compound 0.000949 µM
[8] = second compound 0.003 µM, first compound 0.003 µM
[9] = second compound 0.003 µM, first compound 0.00949 µM
[10] = second compound 0.003 µM, first compound 0.03 µM
[11] = second compound 0.003 µM, first compound 0.0949 µM
[12] = second compound 0.003 µM, first compound 0.3 µM
[13] = second compound 0.00949 µM, first compound 0.000949 µM
[14] = second compound 0.00949 µM, first compound 0.003 µM
[15] = second compound 0.00949 µM, first compound 0.00949 µM
[16] = second compound 0.00949 µM, first compound 0.03 µM
[17] = second compound 0.00949 µM, first compound 0.0949 µM
[18] = second compound 0.00949 µM, first compound 0.3 µM
[19] = second compound 0.03 µM, first compound 0.000949 µM
[20] = second compound 0.03 µM, first compound 0.003 µM
[21] = second compound 0.03 µM, first compound 0.00949 µM
[22] = second compound 0.03 µM, first compound 0.03 µM
[23] = second compound 0.03 µM, first compound 0.0949 µM
[24] = second compound 0.03 µM, first compound 0.3 µM
[25] = second compound 0.0949 µM, first compound 0.000949 µM
[26] = second compound 0.0949 µM, first compound 0.003 µM
[27] = second compound 0.0949 µM, first compound 0.00949 µM
[28] = second compound 0.0949 µM, first compound 0.03 µM
[29] = second compound 0.0949 µM, first compound 0.0949 µM
[30] = second compound 0.0949 µM, first compound 0.3 µM
[31] = second compound 0.3 µM, first compound 0.000949 µM
[32] = second compound 0.3 µM, first compound 0.003 µM
[33] = second compound 0.3 µM, first compound 0.00949 µM
[34] = second compound 0.3 µM, first compound 0.03 µM
[35] = second compound 0.3 µM, first compound 0.0949 µM
[36] = second compound 0.3 µM, first compound 0.3 µM
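Note: spheroids exposed to compounds for 7 days before readout.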
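Throughout, for viability, T/C: 100% = DMSO vehicle control viability.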

With C=CC(=O)N1CCN(c2nc(OCC3CCCN3C)nc3c(F)c(-c4nc(N)cc(C)c4C(F)(F)F)c(Cl)cc23)C(C)C1 (stereo unspecified) + CCn1c(-c2cc(N3CCN(C)CC3)cnc2C(C)OC)c2c3cc(ccc31)-c1csc(n1)CC(NC(=O)C1CC1C)C(=O)N1CCCC(N1)C(=O)OCC(C)(C)C2 the IC50 (second compound 0.000949 µM) was < 3160 pM, the IC50 (second compound 0.003 µM) was < 3160 pM and the IC50 (second compound 0.00949 µM) was < 3160 pM. The IC50 (second compound 0.03 µM) was < 3160 pM, the IC50 (second compound 0.0949 µM) was < 3160 pM and the IC50 (second compound 0.3 µM) was < 3160 pM. It also gave a viability, T/C (second compound 0.000949 µM, first compound 0.00316 µM) of 20.1%, a viability, T/C (second compound 0.000949 µM, first compound 0.01 µM) of 19.7% and a viability, T/C (second compound 0.000949 µM, first compound 0.0316 µM) of 14.8%. For the same compound, the viability, T/C (second compound 0.000949 µM, first compound 0.1 µM) was 18.7%, the viability, T/C (second compound 0.000949 µM, first compound 0.316 µM) was 20.2% and the viability, T/C (second compound 0.000949 µM, first compound 1 µM) was 16.2%. It also gave a viability, T/C (second compound 0.003 µM, first compound 0.00316 µM) of 16.9%, a viability, T/C (second compound 0.003 µM, first compound 0.01 µM) of 15.7% and a viability, T/C (second compound 0.003 µM, first compound 0.0316 µM) of 14.5%. The viability, T/C (second compound 0.003 µM, first compound 0.1 µM) was 17.2%, the viability, T/C (second compound 0.003 µM, first compound 0.316 µM) was 19.6% and the viability, T/C (second compound 0.003 µM, first compound 1 µM) was 14.6%. For the same compound, the viability, T/C (second compound 0.00949 µM, first compound 0.00316 µM) was 17.3%, the viability, T/C (second compound 0.00949 µM, first compound 0.01 µM) was 16.4% and the viability, T/C (second compound 0.00949 µM, first compound 0.0316 µM) was 17.7%. The viability, T/C (second compound 0.00949 µM, first compound 0.1 µM) was 18%, the viability, T/C (second compound 0.00949 µM, first compound 0.316 µM) was 15.6% and the viability, T/C (second compound 0.00949 µM, first compound 1 µM) was 14.8%. For the same compound, the viability, T/C (second compound 0.03 µM, first compound 0.00316 µM) was 17.7%, the viability, T/C (second compound 0.03 µM, first compound 0.01 µM) was 18.3% and the viability, T/C (second compound 0.03 µM, first compound 0.0316 µM) was 17.5%. For the same compound, the viability, T/C (second compound 0.03 µM, first compound 0.1 µM) was 16.3%, the viability, T/C (second compound 0.03 µM, first compound 0.316 µM) was 14% and the viability, T/C (second compound 0.03 µM, first compound 1 µM) was 17.8%. It also gave a viability, T/C (second compound 0.0949 µM, first compound 0.00316 µM) of 15.6%, a viability, T/C (second compound 0.0949 µM, first compound 0.01 µM) of 16.7% and a viability, T/C (second compound 0.0949 µM, first compound 0.0316 µM) of 16.5%. For the same compound, the viability, T/C (second compound 0.0949 µM, first compound 0.1 µM) was 17.7%, the viability, T/C (second compound 0.0949 µM, first compound 0.316 µM) was 14.9% and the viability, T/C (second compound 0.0949 µM, first compound 1 µM) was 19.4%. The viability, T/C (second compound 0.3 µM, first compound 0.00316 µM) was 17%, the viability, T/C (second compound 0.3 µM, first compound 0.01 µM) was 17.2% and the viability, T/C (second compound 0.3 µM, first compound 0.0316 µM) was 17.1%. The viability, T/C (second compound 0.3 µM, first compound 0.1 µM) was 14.5%, the viability, T/C (second compound 0.3 µM, first compound 0.316 µM) was 18.5% and the viability, T/C (second compound 0.3 µM, first compound 1 µM) was 18.2%.
With CC1(C)CCC(Nc2ncc(C(F)(F)F)c(-c3c[nH]c4c(P(C)(C)=O)c(C#N)ccc34)n2)CN1 (stereo unspecified) + CCn1c(-c2cc(N3CCN(C)CC3)cnc2C(C)OC)c2c3cc(ccc31)-c1csc(n1)CC(NC(=O)C1CC1C)C(=O)N1CCCC(N1)C(=O)OCC(C)(C)C2 the IC50 (second compound 0.000949 µM) was < 949 pM, the IC50 (second compound 0.003 µM) was < 949 pM and the IC50 (second compound 0.00949 µM) was < 949 pM. For the same compound, the IC50 (second compound 0.03 µM) was < 949 pM, the IC50 (second compound 0.0949 µM) was < 949 pM and the IC50 (second compound 0.3 µM) was < 949 pM. The viability, T/C [1] was 26.8%, the viability, T/C [2] was 28.2% and the viability, T/C [3] was 23.5%. It also gave a viability, T/C [4] of 27.3%, a viability, T/C [5] of 32.7% and a viability, T/C [6] of 24.8%. The viability, T/C [7] was 19.8%, the viability, T/C [8] was 18.5% and the viability, T/C [9] was 16.6%. The viability, T/C [10] was 22.6%, the viability, T/C [11] was 19.5% and the viability, T/C [12] was 17.1%. For the same compound, the viability, T/C [13] was 14%, the viability, T/C [14] was 10.3% and the viability, T/C [15] was 11.3%. The viability, T/C [16] was 14.4%, the viability, T/C [17] was 12.3% and the viability, T/C [18] was 12.2%. It also gave a viability, T/C [19] of 10.8%, a viability, T/C [20] of 9.52% and a viability, T/C [21] of 9.8%. For the same compound, the viability, T/C [22] was 10.9%, the viability, T/C [23] was 9.73% and the viability, T/C [24] was 11.7%. For the same compound, the viability, T/C [25] was 9.88%, the viability, T/C [26] was 9.37% and the viability, T/C [27] was 10%. It also gave a viability, T/C [28] of 11.1%, a viability, T/C [29] of 8.77% and a viability, T/C [30] of 11.9%. The viability, T/C [31] was 9.86%, the viability, T/C [32] was 9.92% and the viability, T/C [33] was 9.46%. For the same compound, the viability, T/C [34] was 8.06%, the viability, T/C [35] was 9.53% and the viability, T/C [36] was 10.4%.
For CCc1c2c(nc3ccc(O)cc13)-c1cc3c(c(=O)n1C2)COC(=O)[C@]3(O)CC + CCn1c(-c2cc(N3CCN(C)CC3)cnc2C(C)OC)c2c3cc(ccc31)-c1csc(n1)CC(NC(=O)C1CC1C)C(=O)N1CCCC(N1)C(=O)OCC(C)(C)C2, the IC50 (second compound 0.000949 µM) was < 949 pM, the IC50 (second compound 0.003 µM) was < 949 pM and the IC50 (second compound 0.00949 µM) was < 949 pM. The IC50 (second compound 0.03 µM) was < 949 pM, the IC50 (second compound 0.0949 µM) was < 949 pM and the IC50 (second compound 0.3 µM) was < 949 pM. For the same compound, the viability, T/C [1] was 24.6%, the viability, T/C [2] was 24.4% and the viability, T/C [3] was 19.9%. For the same compound, the viability, T/C [4] was 20.5%, the viability, T/C [5] was 18.1% and the viability, T/C [6] was 9.95%. For the same compound, the viability, T/C [7] was 25.8%, the viability, T/C [8] was 16.7% and the viability, T/C [9] was 12.8%. It also gave a viability, T/C [10] of 13.4%, a viability, T/C [11] of 10.3% and a viability, T/C [12] of 5.76%. The viability, T/C [13] was 17.3%, the viability, T/C [14] was 10.6% and the viability, T/C [15] was 13.3%. For the same compound, the viability, T/C [16] was 10.5%, the viability, T/C [17] was 7.7% and the viability, T/C [18] was 4.19%. It also gave a viability, T/C [19] of 13.7%, a viability, T/C [20] of 14.1% and a viability, T/C [21] of 9.58%. The viability, T/C [22] was 8.62%, the viability, T/C [23] was 5.46% and the viability, T/C [24] was 4.56%. For the same compound, the viability, T/C [25] was 12.9%, the viability, T/C [26] was 11.2% and the viability, T/C [27] was 10.6%. The viability, T/C [28] was 8.43%, the viability, T/C [29] was 5.36% and the viability, T/C [30] was 4.56%. The viability, T/C [31] was 10.8%, the viability, T/C [32] was 10.7% and the viability, T/C [33] was 9.64%. For the same compound, the viability, T/C [34] was 10.6%, the viability, T/C [35] was 5.65% and the viability, T/C [36] was 3.94%.
